The source of these data is ChEMBL document CHEMBL2439974, “Design and Synthesis of 4-(4-Benzoylaminophenoxy)phenol Derivatives As Androgen Receptor Antagonists” (ACS Med Chem Lett, 2013).

Active and inactive are the calls of the source. No cut-off for these calls is given here.

Assay [1] addresses Androgen receptor (Mus musculus) (UniProt P19091). The assay is described as follows: Antagonist activity at androgen receptor in mouse SC3 cells assessed as inhibition of DHT-induced cell growth at 10 uM after 3 days by CCK-8/WST-8 assay relative to control. The conditions noted are these: SC-3. The format is cell-based.
Assay [2] deals with T1, Androgen receptor (Homo sapiens) (UniProt P10275).
T1 sequence (whole entry): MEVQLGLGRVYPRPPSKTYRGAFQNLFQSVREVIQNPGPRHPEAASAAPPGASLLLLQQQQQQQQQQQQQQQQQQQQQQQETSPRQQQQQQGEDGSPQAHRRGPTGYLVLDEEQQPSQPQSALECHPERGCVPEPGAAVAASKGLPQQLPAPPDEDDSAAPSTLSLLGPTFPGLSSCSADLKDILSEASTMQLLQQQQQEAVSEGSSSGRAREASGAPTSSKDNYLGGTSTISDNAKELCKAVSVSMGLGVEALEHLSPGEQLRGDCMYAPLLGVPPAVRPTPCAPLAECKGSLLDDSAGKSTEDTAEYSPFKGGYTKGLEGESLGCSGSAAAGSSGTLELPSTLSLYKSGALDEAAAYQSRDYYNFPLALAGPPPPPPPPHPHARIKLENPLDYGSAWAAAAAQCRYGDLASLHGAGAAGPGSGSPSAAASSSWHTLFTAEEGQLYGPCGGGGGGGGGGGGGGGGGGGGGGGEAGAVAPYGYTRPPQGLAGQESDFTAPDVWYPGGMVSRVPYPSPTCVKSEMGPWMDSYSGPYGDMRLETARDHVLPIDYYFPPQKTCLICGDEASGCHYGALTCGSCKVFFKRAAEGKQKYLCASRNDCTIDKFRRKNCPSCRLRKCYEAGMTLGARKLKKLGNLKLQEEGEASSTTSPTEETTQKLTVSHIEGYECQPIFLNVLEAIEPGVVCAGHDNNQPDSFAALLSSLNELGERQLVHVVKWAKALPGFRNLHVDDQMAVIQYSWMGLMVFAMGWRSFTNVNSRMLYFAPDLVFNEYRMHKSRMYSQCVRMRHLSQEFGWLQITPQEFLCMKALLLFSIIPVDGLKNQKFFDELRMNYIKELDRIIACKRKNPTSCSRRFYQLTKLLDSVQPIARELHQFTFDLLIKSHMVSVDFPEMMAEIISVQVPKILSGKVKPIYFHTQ
Briefly: Antagonist activity at androgen receptor in human MDA-kb2 cells assessed as inhibition of DHT-induced luciferase activity at 10 uM after 24 hrs by chemiluminescence assay relative to control. The format is cell-based.

For assay [3], the target named is T2, Androgen receptor (Homo sapiens, UniProt P10275).
T2 sequence (P10275 whole entry): T1 sequence (whole entry)
Briefly: Displacement of [3H]-DHT from human GST-tagged androgen receptor LBD (627 to 919) expressed in Escherichia coli HB-101 after 15 hrs by liquid scintillation counting analysis. A general note: Loss of bound radioactivity is the signal in a displacement assay; it reports binding, not function.

The subject of assay [4] is PC-3. Briefly: Cytotoxicity against human PC3 cells assessed as growth inhibition after 3 days by WST-8 assay. The format is functional, cell-based. The conditions noted are these: PC-3, 72 h. A general note: Formazan colour is commonly taken as a measure of viable cells.

Sequence of Androgen receptor (Mus musculus) (P19091 whole entry): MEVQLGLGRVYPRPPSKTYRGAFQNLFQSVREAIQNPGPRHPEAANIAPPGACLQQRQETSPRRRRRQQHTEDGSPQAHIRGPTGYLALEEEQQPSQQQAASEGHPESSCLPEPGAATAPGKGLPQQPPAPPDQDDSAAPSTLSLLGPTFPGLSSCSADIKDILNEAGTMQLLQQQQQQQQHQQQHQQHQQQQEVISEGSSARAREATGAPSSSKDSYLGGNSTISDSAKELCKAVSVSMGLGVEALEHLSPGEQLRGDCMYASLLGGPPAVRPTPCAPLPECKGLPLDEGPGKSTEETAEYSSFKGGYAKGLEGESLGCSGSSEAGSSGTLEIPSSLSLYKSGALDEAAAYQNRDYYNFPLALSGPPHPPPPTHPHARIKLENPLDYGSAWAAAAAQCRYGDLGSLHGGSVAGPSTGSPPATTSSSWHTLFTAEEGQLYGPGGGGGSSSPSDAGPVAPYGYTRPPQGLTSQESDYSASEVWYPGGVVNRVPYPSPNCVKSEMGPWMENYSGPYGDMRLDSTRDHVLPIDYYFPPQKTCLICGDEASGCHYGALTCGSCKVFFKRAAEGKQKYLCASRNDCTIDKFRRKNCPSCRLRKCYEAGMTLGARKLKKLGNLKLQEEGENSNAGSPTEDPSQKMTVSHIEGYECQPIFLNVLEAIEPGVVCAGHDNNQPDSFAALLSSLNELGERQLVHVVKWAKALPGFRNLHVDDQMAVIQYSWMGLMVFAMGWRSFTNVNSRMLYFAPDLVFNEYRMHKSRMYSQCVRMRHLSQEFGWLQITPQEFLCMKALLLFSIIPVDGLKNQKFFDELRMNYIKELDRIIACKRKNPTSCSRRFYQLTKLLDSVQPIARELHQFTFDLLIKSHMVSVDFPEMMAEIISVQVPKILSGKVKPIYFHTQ

`O=C(Nc1ccc(Oc2ccccc2)cc1)c1ccccc1`: the growth inhibition (GI) in assay [1] was found to be 20%.

In general, inhibition refers to how much of the control response was suppressed. As for `CC(C)(O)C(=O)Nc1ccc([N+](=O)[O-])c(C(F)(F)F)c1`, in assay [2], the inhibition was 60%.

The term IC50 denotes the point on the concentration scale where inhibition reaches its midpoint. As for `COc1cccc(C(=O)Nc2ccc(Oc3ccc(O)cc3)nc2)c1`, the 50% inhibitory concentration (IC50) in assay [3] was > 10 µM. Besides, the inhibition result in assay [2] is “inactive”.

As to `COc1cccc(C(=O)Nc2ccc(Oc3ccc(O)cc3)c(C)c2)c1`, the IC50 in assay [3] came to 9.2 µM; in assay [4], 5.7 µM. Further, in assay [2], the inhibition was determined as 66%.

Consider `COc1cccc(C(=O)Nc2cnc(Oc3ccc(O)cc3)nc2)c1`, for which the 50% inhibitory concentration (IC50) in assay [3] was > 10 µM. The inhibition entry in assay [2] is “inactive”.

For `O=C(Nc1ccc(Oc2ccc(O)cc2)cc1)c1ccc(O)cc1`, the “growth inhibition (GI)” value in assay [1] is “inactive”.

With `CC(O)(CS(=O)(=O)c1ccc(F)cc1)C(=O)Nc1ccc(C#N)c(C(F)(F)F)c1` (stereo not drawn) [BICALUTAMIDE], the 50% inhibitory concentration (IC50) in assay [4] is > 10 µM.

`COc1cccc(C(=O)Nc2cc(C)c(Oc3ccc(O)cc3)c(C)c2)c1`: the half-maximal inhibitory concentration (IC50) in assay [3] was 5.4 µM; in assay [4], > 10 µM. Moreover, the inhibition in assay [2] is 69%.

Turning to `O=C(Nc1ccc(Oc2ccc(O)cc2)cc1)c1cccc(O)c1`, the “growth inhibition (GI)” value in assay [1] is “inactive”.

For the compound `COc1cccc(C(=O)Nc2ccc(Oc3ccc(O)cc3)cc2)c1`, the values for the half-inhibitory concentration (IC50) in assay [3] and in assay [4] were 20 µM and 5.6 µM, respectively. The inhibition in assay [2] was 6%.
